The source of these data is PMC3588188, “Interactions between Human Liver Fatty Acid Binding Protein and Peroxisome Proliferator Activated Receptor Selective Drugs” (PPAR Research, 2013).

Where two headings read alike, the source gives them in different places.

The target of assay [1] is T1, human L-FABP (Homo sapiens, UniProt P07148).
T1 sequence (P07148 1-127): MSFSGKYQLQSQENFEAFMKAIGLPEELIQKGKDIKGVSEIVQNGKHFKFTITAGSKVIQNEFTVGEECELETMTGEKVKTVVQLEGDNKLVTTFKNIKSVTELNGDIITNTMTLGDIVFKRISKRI
Kind of assay: Fluorescent binding cavity probe binding to L-FABP.

Assay [2] concerns the target T1, human L-FABP. Put plainly: ANS fluorescence displacement assay with L-FABP.
The target of assay [3] is T2, human PPARδ LBD (aa 171–441) (Homo sapiens, UniProt Q03181).
T2 construct: human PPARδ (aa 171–441); [His]6 (N); made in house; host or cells: E. coli BL21 Codon Plus (DE3)-RIL (plasmid from William Hunter, University of Dundee)
T2 sequence (Q03181 171-441): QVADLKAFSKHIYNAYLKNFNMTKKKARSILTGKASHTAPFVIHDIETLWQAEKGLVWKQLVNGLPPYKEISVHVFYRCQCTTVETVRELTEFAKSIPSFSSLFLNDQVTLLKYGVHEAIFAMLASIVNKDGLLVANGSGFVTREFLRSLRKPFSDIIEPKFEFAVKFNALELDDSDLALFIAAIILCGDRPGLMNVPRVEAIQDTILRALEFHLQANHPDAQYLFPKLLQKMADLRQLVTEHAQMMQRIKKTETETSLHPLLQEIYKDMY
Put plainly: cis-parinaric acid fluorescence displacement assay with PPARδ LBD. The conditions noted are these: cis-parinaric acid (2 μM) displacement, LBD 1 μM; nd = no binding detected; read-out: Ki, PPARδLBD. On the procedure: (§1) Proteins were resolved using a step gradient of 0–300 mM imidazole in buffer A (50 mM Tris-HCl, pH 8.0; 500 mM NaCl; 0.5 mM ethylenediaminetetraacetic acid (EDTA); 1 mM dithiothreitol (DTT); 5% (v/v) glycerol) at a flow rate of 5 mL/min (4 column volumes (CVs) washout unbound sample; 0%–30% imidazole over 5 CVs; hold 30% for 2 CVs; 30%–100% imidazole over 5 CVs; hold 100% for 3 CVs).

Assay [4] has as its target T3, human PPARα LBD (aa 196–468) (Homo sapiens, UniProt Q07869).
T3 construct: LBD of human PPARα (aa 196–468); [His]6 (N); made in house; host or cells: E. coli BL21 Codon Plus (DE3)-RIL (plasmid from Krister Bamberg, Astra-Zeneca)
T3 sequence (Q07869 196-468): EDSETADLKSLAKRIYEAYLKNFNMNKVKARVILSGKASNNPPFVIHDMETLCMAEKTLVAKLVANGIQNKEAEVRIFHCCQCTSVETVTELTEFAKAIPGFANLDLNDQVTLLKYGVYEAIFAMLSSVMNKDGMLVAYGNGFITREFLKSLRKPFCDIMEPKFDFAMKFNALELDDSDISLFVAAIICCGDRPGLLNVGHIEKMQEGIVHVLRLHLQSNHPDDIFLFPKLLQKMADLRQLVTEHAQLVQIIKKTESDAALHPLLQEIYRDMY
Put plainly: cis-parinaric acid fluorescence displacement assay with PPARα LBD. Particulars: cis-parinaric acid (2 μM) displacement, LBD 1 μM; nd = no binding detected; read-out: Ki, PPARαLBD. How it is done: as §1

Assay [5] has as its target T1, human L-FABP. Put plainly: Limited proteolysis of L-FABP with trypsin. More on the design: [His]6 (N); made in house; host or cells: E. coli BL21 Codon Plus (DE3)-RIL. Particulars: drug 0-5 μM, L-FABP 50 μM, 1 hr at 20°C. How it is done:
The limited proteolysis of L-FABP (50 μM) with sequencing grade trypsin was carried out in buffer D (20 mM Tris-HCl, pH 8.0; 50 mM NaCl; […]. Apo- or holo-drug (0, 0.1, 0.4, 1.0, 5 μM final drug concentration) protein samples were equilibrated with the drug at 20°C for 15 min before protease was added. Digestion reactions were stopped by the addition of 5 μL of 50 mM phenylmethanesulfonyl fluoride (PMSF) followed by one volume of SDS-PAGE sample buffer (12.5% 0.5 M Tris-HCl pH 6.8; 0.005% bromophenol blue; 10% SDS; 10% glycerol; 2% β-mercaptoethanol) and heated for 2 min at 100°C. Samples were resolved on 4% stacking, 20% resolving polyacrylamide gels at 4°C at a constant voltage of 80 V, using the Laemmli buffer system. Gels were stained with Coomassie Blue G-250 and destained with 50% methanol/10% acetic acid (v/v) solution. Gels were dried between cellulose sheets and scanned at 1200 dpi. Protein bands were quantified densitometrically using LabImage 1D gel analysis software V3.4 (Kapelan GmbH, http://www.kapelan-bioimaging.com/).

Assay [6] deals with T4, PPARαLBD (Homo sapiens, UniProt Q07869).
T4 construct: LBD of human PPARα (aa 196–468); [His]6 (N); made in house; host or cells: E. coli BL21 Codon Plus (DE3)-RIL (plasmid from Krister Bamberg, Astra-Zeneca)
T4 sequence (Q07869 196-468): T3 sequence (Q07869 196-468)
Put plainly: PPARαLBD protection from limited proteolysis (western blot). Particulars: PPARαLBD 30 μM, drug 0, 1, 5 μM, trypsin 30 min at 20°C. From the text: […] […] The reaction was quenched by the addition of PMSF and one volume of SDS-PAGE sample buffer as detailed above. Samples were resolved by 15% resolving SDS-PAGE polyacrylamide gels then transferred to a PVDF membrane and probed with anti-human PPARα antibody (mapping to C-terminal aa 420–468 of the PPARαLBD; cat. no. sc1982 Santa-Cruz Biotechnology, Santa Cruz, CA, USA) by western blotting.

In assay [7] the target is T1, human L-FABP. Kind of assay: cis-parinaric acid fluorescence displacement assay with L-FABP. The conditions noted are these: for displacement of cis-parinaric acid fluorescence from L-FABP: extent of probe displacement by drug titration.
Assay [8] addresses T1, human L-FABP. Kind of assay: Differential scanning calorimetry of L-FABP. The arrangement: [His]6 (N); made in house; host or cells: E. coli BL21 Codon Plus (DE3)-RIL. Particulars: holo-drug L-FABP; apo L-FABP Tm = 80.1; scan rate 0.5°C/min. How it is done:
DSC measurements were performed on N-DSC II calorimeter (Calorimetry Sciences Corporation, UT, USA) at a heating rate of 0.5°C/min. For preparation of 250 μM protein sample solutions, L-FABP was extensively buffer exchanged into buffer E (20 mM Tris-HCl pH 8.0) by ultrafiltration using Amicon Ultra 3 K centrifugal concentrators and degassed prior to filling the calorimeter cells. The filtrate from the sample preparation was used as a reference buffer for the DSC measurements. The thermal transition mid-point temperatures (T m) were calculated using CpCalc software (Calorimetry Sciences Corporation, UT, USA).
(Differential scanning calorimetry records heat flow against a reference as temperature is scanned.)

In assay [9] the target is T5, human PPARγ LBD (aa 193–475) (Homo sapiens, UniProt P37231).
T5 construct: human PPARγ (aa 193–475); [His]6 (N); made in house; host or cells: E. coli BL21 Codon Plus (DE3)-RIL (plasmid from Krister Bamberg, Astra-Zeneca)
T5 sequence (P37231 193-475 isoform P37231-2): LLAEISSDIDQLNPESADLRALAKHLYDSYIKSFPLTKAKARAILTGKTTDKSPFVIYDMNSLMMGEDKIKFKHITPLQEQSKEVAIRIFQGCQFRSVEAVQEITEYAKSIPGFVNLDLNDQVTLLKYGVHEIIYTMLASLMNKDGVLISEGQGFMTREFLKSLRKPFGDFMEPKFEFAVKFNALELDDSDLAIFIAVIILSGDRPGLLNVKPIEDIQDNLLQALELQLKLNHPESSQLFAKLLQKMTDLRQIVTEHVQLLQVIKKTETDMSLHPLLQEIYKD
Put plainly: cis-parinaric acid fluorescence displacement assay with PPARγ LBD. Format: binding. How it is done:
as §1

The mark [10] stands for this setting: cis-parinaric acid (2 μM) displacement, LBD 1 μM, nd = no binding detected, read-out: Ki, PPARγLBD.

The Kd is the free concentration of one partner at which half of the binding sites on the other are occupied at equilibrium, for simple one-to-one binding. Low values mean a tighter complex, high ones a looser complex. The compound `O=S(=O)(O)c1cccc2cccc(Nc3ccccc3)c12` showed a Kd in assay [1] of 6 ± 2.6 µM.

As a reminder, the Ki is a measure of affinity in units of concentration, obtained from inhibition or displacement. For the compound `CC(C)(Oc1ccc(C(=O)c2ccc(Cl)cc2)cc1)C(=O)O` [Fenofibric acid], the inhibition constant (Ki) in [2] was 1 ± 0.2 µM; in [3], 49 ± 4 µM; in assay [4], 10 ± 3 µM.

`CN(CCOc1ccc(C[C@H](Nc2ccccc2C(=O)c2ccccc2)C(=O)O)cc1)c1ccccn1` [GW1929] yielded an inhibition constant Ki in assay [2] of 1.6 ± 0.7 µM.

With `CC(C)(Sc1ccc(CCN(CCCCC2CCCCC2)C(=O)NC2CCCCC2)cc1)C(=O)O` [GW7647], the “protection of L-FABP from limited proteolysis” value in assay [5] is listed as “afforded more resistance to proteolysis”. In assay [2], this compound registered a Ki of 0.32 ± 0.13 µM. In addition, the “protection of PPARαLBD from limited proteolysis” value in assay [6] is recorded as “afforded protection to the PPARαLBD against proteolysis”. For the same compound, in assay [7], the Ki was 0.55 µM and the “displacement of cis-parinaric acid fluorescence from L-FABP” value is given as “could not completely displace the cis-parinaric acid fluorescence”. For the same compound, the “thermal transition mid-point temperature (Tm) of L-FABP in complex with drug” value in assay [8] worked out at 86.7 °C.

In the case of `Cc1nc(-c2ccc(C(F)(F)F)cc2)sc1C(=O)NCc1ccc(OC(C)(C)C(=O)O)cc1` [GW590735], the inhibitory constant (Ki) was 20 ± 3.8 µM in [2], 23 ± 4 µM in [3] and 4.4 ± 2.3 µM in [9] (setting [10]).

As for `CCCc1c(OCCCOc2ccc(OCC(=O)O)cc2)ccc(C(C)=O)c1O` [L-165,041], the “protection of L-FABP from limited proteolysis” value in [5] is listed as “protects L-FABP from limited proteolysis”. Moreover, the Ki in assay [2] is 1.4 ± 0.6 µM; in [7], 2.3 µM; in assay [3], 0.8 ± 0.3 µM; in assay [9] (setting [10]) it was 12 ± 2.1 µM; in [4], 4.2 ± 0.4 µM. Moreover, the “displacement of cis-parinaric acid fluorescence from L-FABP” value in [7] is “could not completely displace the cis-parinaric acid fluorescence”.

Take `CCCCCCCC/C=C\CCCCCCCC(=O)O` [Oleate]: the inhibition constant (Ki) in [3] was 1.1 ± 0.26 µM; in assay [9], 0.6 ± 0.015 µM; in assay [4], 0.21 ± 0.08 µM.

In [2], `CN(CCOc1ccc(CC2SC(=O)NC2=O)cc1)c1ccccn1` (centres unmarked) [Rosiglitazone] displayed an inhibition constant Ki of 2.8 ± 1.1 µM.

In assay [2], `Cc1c(C)c2c(c(C)c1O)CCC(C)(COc1ccc(CC3SC(=O)NC3=O)cc1)O2` (centres unmarked) [Troglitazone] had a Ki of 1.7 ± 0.5 µM.
